US20240010681A1, “PEPTIDES AND METHODS OF USE” (REALTA LIFE SCIENCES, INC., priority 2020, published 2024)

Test: Pharmacokinetics, metabolite profiles and excretion of [14C]-PIC1-dPEG24 after single IV dose
Type: in vivo, rat
Method: […]. The six rats in Group 3 and Group 4 were further divided into two subgroups for serial blood collections at 10, 30 min and 1, 2, 3, 4, 6, 8, 24, and 48 hr. Blood was pooled by equal volume across animals at each time point, and aliquots (˜200 μL) of pooled blood were removed at each time point for total radioactivity, and the rest of blood samples were centrifuged to obtain plasma. Bile, urine, feces, and cage wash samples were collected up to 72 hr in bile duct cannulated (BDC) rats, and up to 168 hr in intact rats, and terminal blood samples were collected at the end of study (72 hr or 168 hr post-doses). The total radioactivity concentrations in the excreta, blood and plasma were determined by homogenization, combustion and/or liquid scintillation counting (LSC). The metabolite profiles and structure characterization were conducted in pooled plasma, urine, and bile samples using LC-UV/MS as well as radioactive detection. […].
The radioactive profiles of rat plasma samples for the low dose group and the high dose group were qualitatively similar.

CC[C@H](C)[C@H](N)C(=O)N[C@@H](C)C(=O)N[C@@H](CC(C)C)C(=O)N[C@H](C(=O)N[C@@H](CC(C)C)C(=O)N[C@@H](CCC(=O)O)C(=O)N1CCC[C@H]1C(=O)N[C@H](C(=O)N[C@@H](CS)C(=O)N[C@@H](CS)C(=O)N[C@@H](CCC(N)=O)C(=O)N[C@@H](CCC(=O)O)C(=O)N[C@@H](CCCNC(=N)N)C(=O)N[C@@H](C)C(=O)N[C@@H](C)C(=O)NCCOCCOCCOCCOCCOCCOCCOCCOCCOCCOCCOCCOCCOCCOCCOCCOCCOCCOCCOCCOCCOCCOCCOCCOCCC(=O)O)[C@@H](C)CC)[C@@H](C)CC [[^14C]-PIC1-dPEG24]
unchanged parent compound in urine (20 and 200 mg/kg dose): not detectable
unchanged parent compound and M2768 together in pooled plasma (8 hr time point, small radioactive peak at 30 min post-IV-injection): still detectable
route of elimination of related radioactivity (male BDC and intact rats, single IV 20 and 200 mg/kg): urinary excretion was major route of elimination
half-life (rat, in vivo, intact rats, IV 20 and 200 mg/kg, read-out: plasma elimination half-lives for total radioactivity): ≥ 2400 min
dosed radioactivity recovered within 24 hr post-dose (single IV 20 or 200 mg/kg, mainly via urine): > 70 % of the dose
